Molecular target: T1, ADRA2A (Homo sapiens, UniProt P08913)
T1 sequence (P08913 1-465): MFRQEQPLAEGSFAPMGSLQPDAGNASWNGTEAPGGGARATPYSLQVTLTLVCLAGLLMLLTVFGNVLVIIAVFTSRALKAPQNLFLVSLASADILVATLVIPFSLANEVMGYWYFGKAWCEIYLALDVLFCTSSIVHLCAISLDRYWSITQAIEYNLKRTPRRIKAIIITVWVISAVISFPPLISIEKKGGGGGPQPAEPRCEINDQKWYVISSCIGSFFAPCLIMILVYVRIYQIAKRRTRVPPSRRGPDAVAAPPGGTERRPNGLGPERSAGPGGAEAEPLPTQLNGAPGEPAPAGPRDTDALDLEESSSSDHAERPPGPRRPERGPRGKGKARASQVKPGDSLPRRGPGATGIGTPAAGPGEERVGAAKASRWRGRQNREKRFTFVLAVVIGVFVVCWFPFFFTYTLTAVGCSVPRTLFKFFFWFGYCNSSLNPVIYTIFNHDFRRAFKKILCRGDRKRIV
Assay: cell-based

- IC50: 59 µM
SMILES: COC(=O)C1=CO[C@@H](C)[C@@H]2Cn3ccc4c5ccccc5nc-4c3C[C@H]12 [1a, alstonine]
